The text below walks through data of US20100137305A1, “AMINOPYRIMIDINES USEFUL AS KINASE INHIBITORS” (VERTEX PHARMACEUTICALS INCORPORATED, priority 2008, published 2010).

Where two headings read alike, the source gives them in different places.

One assay addresses Aurora-1 (Aurora B) (Homo sapiens, UniProt Q96GD4). The assay can be described thus: Aurora-1 (Aurora B) Inhibition Assay (radiometric). It counts as biochemical. The settings on record: 800 μM ATP; read-out: Aurora B kinase activity Ki. As for the experimental part: An assay buffer solution was prepared which consisted of 25 mM HEPES (pH 7.5), 10 mM MgCl2, 0.1% BSA and 10% glycerol. A 22 nM Aurora-B solution, also containing 1.7 mM DTT and 1.5 mM Kemptide (LRRASLG), was prepared in assay buffer. To 22 μL of the Aurora-B solution, in a 96-well plate, was added 2 μl of a compound stock solution in DMSO and the mixture allowed to equilibrate for 10 minutes at 25° C. The enzyme reaction was initiated by the addition of 16 μl stock [γ-^33P]-ATP Pi-ATP solution (˜20 nCi/μL) prepared in assay buffer, to a final assay concentration of 800 μM. The reaction was stopped after 3 hours by the addition of 16 μL 500 mM phosphoric acid and the levels of ^33P incorporation into the peptide substrate were determined by the following method.
A phosphocellulose 96-well plate (Millipore, Cat no. MAPHNOB50) was pre-treated with 100 μL of a 100 mM phosphoric acid prior to the addition of the enzyme reaction mixture (40 μL). The solution was left to soak on to the phosphocellulose membrane for 30 minutes and the plate subsequently washed four times with 200 μL of a 100 mM phosphoric acid. To each well of the dry plate was added 30 μL of Optiphase ‘SuperMix’ liquid scintillation cocktail (Perkin Elmer) prior to scintillation counting (1450 Microbeta Liquid Scintillation Counter, Wallac). Levels of non-enzyme catalyzed background radioactivity were determined by adding 16 μL of the 500 mM phosphoric acid to control wells, containing all assay components (which acts to denature the enzyme), prior to the addition of the [γ-^33P]-ATP solution. Levels of enzyme catalyzed ^33P incorporation were calculated by subtracting mean background counts from those measured at each inhibitor concentration. For each Ki determination 8 data points, typically covering the concentration range 0-10 μM compound, were obtained in duplicate (DMSO stocks were prepared from an initial compound stock of 10 mM with subsequent 1:2.5 serial dilutions). Ki values were calculated from initial rate data by non-linear regression using the Prism software package (Prism 3.0, Graphpad Software, San Diego, Calif.).

A further assay deals with Colo205 cells. The assay can be described thus: Analysis of Cell Proliferation, 3H thymidine incorporation. It counts as cell-based. The settings on record: Homo sapiens. As for the experimental part: Compounds were screened for their ability to inhibit cell proliferation using Colo205 cells obtained from ECACC and using the assay shown below.
Colo205 cells were seeded in 96 well plates and serially diluted compound was added to the wells in duplicate. Control groups included untreated cells, the compound diluent (0.1% DMSO alone) and culture medium without cells. The cells were then incubated for 72 or 96 hrs at 37C in an atmosphere of 5% CO2/95% humidity.
To measure proliferation, 3 h prior to the end of the experiment 0.5 μCi of 3H thymidine was added to each well. Cells were then harvested and the incorporated radioactivity counted on a Wallac microplate beta-counter. Dose response curves were calculated using either Prism 3.0 (GraphPad) or SoftMax Pro 4.3.1 LS (Molecular Devices) software.

Another assay deals with T1, Aurora-2 (Aurora A) (Homo sapiens, UniProt O14965).
T1 sequence (O14965 1-403): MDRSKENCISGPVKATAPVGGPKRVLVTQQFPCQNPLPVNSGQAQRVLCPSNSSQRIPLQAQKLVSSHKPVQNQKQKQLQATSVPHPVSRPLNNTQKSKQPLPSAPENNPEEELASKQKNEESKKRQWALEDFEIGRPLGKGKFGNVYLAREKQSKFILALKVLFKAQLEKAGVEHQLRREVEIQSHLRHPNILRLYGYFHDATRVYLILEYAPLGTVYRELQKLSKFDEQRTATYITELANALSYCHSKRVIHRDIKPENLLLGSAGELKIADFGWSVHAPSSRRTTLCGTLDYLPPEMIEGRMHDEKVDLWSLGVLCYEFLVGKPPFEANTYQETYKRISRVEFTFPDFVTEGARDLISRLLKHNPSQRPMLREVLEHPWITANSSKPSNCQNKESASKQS
Kind of assay: Aurora-2 (Aurora A) Inhibition Assay, coupled enzyme assay. It counts as biochemical. The settings on record: 400 μM ATP, 30° C.; read-out: Aurora A kinase activity Ki. As for the experimental part: Compounds were screened for their ability to inhibit Aurora-2 using a standard coupled enzyme assay (Fox et al., Protein Sci., (1998) 7, 2249). Assays were carried out in a mixture of 100 mM Hepes (pH7.5), 10 mM MgCl2, 1 mM DTT, 25 mM NaCl, 2.5 mM phosphoenolpyruvate, 300 μM NADH, 30 μg/ml pyruvate kinase and 10 μg/ml lactate dehydrogenase. Final substrate concentrations in the assay were 400 μM ATP (Sigma Chemicals) and 570 μM peptide (Kemptide, American Peptide, Sunnyvale, Calif.). Assays were carried out at 30° C. and in the presence of 40 nM Aurora-2.
An assay stock buffer solution was prepared containing all of the reagents listed above, with the exception of Aurora-2 and the test compound of interest. 55 μl of the stock solution was placed in a 96 well plate followed by addition of 2 μl of DMSO stock containing serial dilutions of the test compound (typically starting from a final concentration of 7.5 μM). The plate was preincubated for 10 minutes at 30° C. and the reaction initiated by addition of 10 μl of Aurora-2. Initial reaction rates were determined with a Molecular Devices SpectraMax Plus plate reader over a 10 minute time course. IC50 and Ki data were calculated from non-linear regression analysis using the Prism software package (GraphPad Prism version 3.0cx for Macintosh, GraphPad Software, San Diego Calif., USA).

[1] abbreviates: COLO 205, 96 h, 96 hours, read-out: IC50 cell proliferation after 96 hours.
Where [2] appears, read: COLO 205, 72 h, 72 hours, read-out: IC50 cell proliferation after 72 hours.

Aurora-1 (Aurora B), sequence (Q96GD4 whole entry): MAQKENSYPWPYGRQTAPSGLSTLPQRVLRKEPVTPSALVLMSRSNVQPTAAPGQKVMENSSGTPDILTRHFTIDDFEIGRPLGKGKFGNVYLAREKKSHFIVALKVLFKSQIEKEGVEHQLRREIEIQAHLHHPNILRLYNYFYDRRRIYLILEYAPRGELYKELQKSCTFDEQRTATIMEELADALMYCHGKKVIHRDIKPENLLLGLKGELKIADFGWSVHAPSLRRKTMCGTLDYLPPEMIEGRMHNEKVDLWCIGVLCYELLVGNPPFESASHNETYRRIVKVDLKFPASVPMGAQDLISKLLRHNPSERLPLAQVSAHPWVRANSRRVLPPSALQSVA

For `Cc1cc(Nc2cc(N3CCC4(CCN(C)C4)CC3)nc(Sc3ccc(NC(=O)C4CC4)c(F)c3)n2)[nH]n1` [Compound I-32], the Ki at Aurora-1 (Aurora B) and at Aurora-2 (Aurora A) was not above 10 nM in each case. Besides, the IC50 in the assay with Colo205 cells (setting [1]) was in the range of 50 to 200 nM.

As to `CCC(=O)Nc1ccc(Sc2nc(Nc3cc(C)n[nH]3)cc(N3CCC(N4CCCC4(C)C)CC3)n2)cc1` [Compound I-33], the Ki (commonly the equilibrium dissociation constant of an inhibitor or competing ligand from its target) on Aurora-1 (Aurora B) was 10 to 50 nM; at Aurora-2 (Aurora A), not above 10 nM. Also, the IC50 in the assay with Colo205 cells (setting [1]) fell in the range of 50 to 200 nM.

Regarding `Cc1cc(Nc2cc(N3CCC(F)C3)nc(Sc3ccc(NC(=O)c4ccccc4Cl)cc3)n2)[nH]n1` (centres unmarked) [Compound I-35], the inhibition constant (Ki) at Aurora-1 (Aurora B) and on Aurora-2 (Aurora A) was not above 10 nM in each case. The IC50 with Colo205 cells (setting [1]) was 50 to 200 nM.

With `CCC(=O)Nc1ccc(Sc2nc(Nc3cc(C)n[nH]3)cc(N3CCC(N4CCOCC4)CC3)n2)cc1` [Compound I-40], the values for the inhibition constant (Ki) on Aurora-1 (Aurora B) and on Aurora-2 (Aurora A) were 10 to 50 nM and not above 10 nM, respectively. In addition, the IC50 with Colo205 cells (setting [1]) was not above 50 nM.

For `CCC(=O)Nc1ccc(Sc2nc(Nc3cc(C)n[nH]3)cc(N3CCC(N4CCC(F)C4)CC3)n2)cc1` (centres unmarked) [Compound I-43], the Ki is 10 to 50 nM at Aurora-1 (Aurora B) and not above 10 nM at Aurora-2 (Aurora A). In addition, the IC50 in the assay with Colo205 cells (setting [1]) was not above 50 nM.

In the case of `CCC(=O)Nc1ccc(Sc2nc(Nc3cc(C)n[nH]3)cc(N3CCC(O)(CC)CC3)n2)cc1` [Compound I-44], the Ki was 10 to 50 nM at Aurora-1 (Aurora B) and not above 10 nM at Aurora-2 (Aurora A). Moreover, the IC50 in the assay with Colo205 cells (setting [1]) was not above 50 nM.

`CCC(=O)Nc1ccc(Sc2nc(Nc3cc(C)n[nH]3)cc(N3CCC(C(C)(C)OC)CC3)n2)cc1` [Compound I-45]: the Ki was 10 to 50 nM at Aurora-1 (Aurora B) and not above 10 nM on Aurora-2 (Aurora A). Besides, in the assay with Colo205 cells (setting [1]), the IC50 was not above 50 nM.

On to `CCC(=O)Nc1ccc(Sc2nc(Nc3cc(C)n[nH]3)cc(N3CCC(N(C)C(C)(C)C)CC3)n2)cc1` [Compound I-47], for which the Ki on Aurora-1 (Aurora B) was 10 to 50 nM; at Aurora-2 (Aurora A) it was not above 10 nM. Besides, the IC50 in the assay on Colo205 cells (setting [1]) is not above 50 nM.

`CCC(=O)Nc1ccc(Sc2nc(Nc3ncc(C)s3)cc(N3CCC(N4CCCC4)CC3)n2)cc1` [Compound I-49]: the Ki is 10 to 50 nM at Aurora-1 (Aurora B) and not above 10 nM on Aurora-2 (Aurora A). Also, the IC50 in the assay on Colo205 cells (setting [1]) was not above 50 nM.

Take `CN1CCC2(CCN(c3cc(Nc4cc(C5CC5)n[nH]4)nc(Sc4ccc(NC(=O)C5CC5)cc4)n3)CC2)C1` [Compound I-51]: the Ki is 10 to 50 nM at Aurora-1 (Aurora B) and not above 10 nM at Aurora-2 (Aurora A). In the assay on Colo205 cells (setting [1]), the IC50 is not above 50 nM.

In the case of `Cc1cc(Nc2cc(N3CCC4(CCN(C)C4)CC3)nc(Sc3ccc(NC(=O)C4CC4)cc3F)n2)[nH]n1` [Compound I-54], the Ki is 10 to 50 nM on Aurora-1 (Aurora B) and not above 10 nM at Aurora-2 (Aurora A). Moreover, in the assay on Colo205 cells (setting [1]), the IC50 is not above 50 nM.

Regarding `CCC(=O)Nc1ccc(Sc2nc(Nc3cc(C4CC4)n[nH]3)cc(N3CCC(N4CCCC4)CC3)n2)cc1` [Compound I-56], the inhibition constant (Ki) at Aurora-1 (Aurora B) is 10 to 50 nM; at Aurora-2 (Aurora A) it was not above 10 nM. For the same compound, the IC50 was not above 25 nM in the assay on Colo205 cells (setting [2]) and not above 50 nM with Colo205 cells (setting [1]).

With `CCC(=O)Nc1ccc(Sc2nc(Nc3cc(C)n[nH]3)cc(N3CCC(O)(C(C)C)CC3)n2)cc1` [Compound I-58], the Ki on Aurora-1 (Aurora B) is 10 to 50 nM; at Aurora-2 (Aurora A) it was not above 10 nM. Moreover, the IC50 with Colo205 cells (setting [1]) was not above 50 nM.

Take `Cc1cnc(Nc2cc(N3CC4CCCNC4C3)nc(Sc3ccc(NC(=O)C4CC4)cc3)n2)s1` (centres unmarked) [Compound I-59]: the inhibition constant Ki on Aurora-1 (Aurora B) is 10 to 50 nM; on Aurora-2 (Aurora A) it was not above 10 nM. The IC50 with Colo205 cells (setting [2]) is not above 25 nM; in the assay with Colo205 cells (setting [1]) it was not above 50 nM.

On to `CCC(=O)Nc1ccc(Sc2nc(Nc3cc(C4CC4)n[nH]3)cc(N3CC[C@H](N4CCCC4)C3)n2)cc1` [Compound I-62], for which the Ki on Aurora-1 (Aurora B) is 10 to 50 nM; on Aurora-2 (Aurora A) it was not above 10 nM. In the assay with Colo205 cells (setting [1]), the IC50 was not above 50 nM.

On to `Cc1cc(Nc2cc(N3CCC(N4CCN(C)CC4)CC3)nc(Sc3ccc(NC(=O)C4(C(F)(F)F)CC4)cc3)n2)[nH]n1` [Compound I-64], for which the values for the Ki on Aurora-1 (Aurora B) and at Aurora-2 (Aurora A) were 10 to 50 nM and not above 10 nM, respectively. In the assay on Colo205 cells (setting [2]), the IC50 was not above 25 nM.

`Cc1cnc(Nc2cc(N3CCC(N4CCN(C)CC4)CC3)nc(Sc3ccc(NC(=O)CC(F)(F)F)cc3)n2)s1` [Compound I-66]: the values for the Ki on Aurora-1 (Aurora B) and at Aurora-2 (Aurora A) were 10 to 50 nM and not above 10 nM, respectively. In addition, in the assay on Colo205 cells (setting [2]), the IC50 is not above 25 nM.
